The source of these data is publication PMC9077236, “Gs protein peptidomimetics as allosteric modulators of the β2-adrenergic receptor” (RSC Advances, 2018).

The nature of data set [1]: CuAAC (i,i+4) side-chain stapling of azidolysine with propargylglycine or O-propargylserine; CuSO4·5H2O (1 eq), Na ascorbate (5 eq); from purified linear peptides. Particulars: the molecule shown is the open-chain precursor, tBuOH/H2O 1:2, 0.5 mM, 25.0 °C.
A short description of data set [2]: CuAAC (i,i+4) side-chain stapling of azidolysine with propargylglycine or O-propargylserine; CuSO4·5H2O (1 eq), Na ascorbate (5 eq); from crude linear peptides. The following applies: the molecule shown is the open-chain precursor, tBuOH/H2O 1:2, 0.5 mM, 25.0 °C.
For data set [3], the target named is T1, β2-adrenergic receptor (β2AR) (Homo sapiens, UniProt P07550).
T1 construct: expressed in transfected cells; host or cells: HEK293 cells stably overexpressing β2AR; membrane fractions used
The data set can be described thus: Membrane-based cAMP accumulation assay (HTRF), ISO-induced cAMP formation. In kind it is biochemical.
Experimental: To allow the peptidomimetics to interact with the intracellular G protein binding pocket they were tested in a membrane-based cAMP accumulation assay (see ESI ^†). […] The cAMP levels in absence of peptidomimetics were normalised to the basal (0%) and maximal efficacy (100%) of ISO in presence of vehicle (DMSO).
overexpressing the β2AR8 were prepared and the peptidomimetics tested as previously
peptidomimetics diluted in HBSS buffer supplemented with 20 mM HEPES pH 7.5, 0.1 %
Elmer) at room temperature (RT) for 15 min. Then isoproterenol solutions for the
prepared in ligand buffer (HBSS buffer supplemented with 20 mM HEPES pH 7.5, 0.1 %
added to the wells and incubated for 30 min at room temperature. To detect cAMP formation
the HTRF cAMP d ynamic 2 assa y kit from CisBio (cat no. 2AM4PEC) was used according
to the manufactures protocol. The absolute cAMP levels were determined using a cAMP
standard curve and norm alised to the maximal cAMP response obtained by full isoproterenol
stimulation alone. Significant differen ces b etween IS O alon e and in presence of the p eptides
were calculat ed statisticall y b y use of on e- wa y ANOVA in the GraphPad Prism software.

T1 sequence (P07550 whole entry, species assumed): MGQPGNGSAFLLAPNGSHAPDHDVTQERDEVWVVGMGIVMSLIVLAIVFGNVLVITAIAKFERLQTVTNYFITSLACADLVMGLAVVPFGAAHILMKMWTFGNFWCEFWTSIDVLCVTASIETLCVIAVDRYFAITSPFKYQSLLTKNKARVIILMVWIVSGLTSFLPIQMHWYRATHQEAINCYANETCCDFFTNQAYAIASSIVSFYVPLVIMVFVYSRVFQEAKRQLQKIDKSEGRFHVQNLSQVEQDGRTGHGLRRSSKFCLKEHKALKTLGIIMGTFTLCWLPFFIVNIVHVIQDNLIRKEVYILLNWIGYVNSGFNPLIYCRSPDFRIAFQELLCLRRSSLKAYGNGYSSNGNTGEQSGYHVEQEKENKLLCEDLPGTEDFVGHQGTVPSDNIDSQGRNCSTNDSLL

`C#CC[C@H](NC(=O)[C@H](CCCNC(=N)N)NC(=O)[C@H](CCC(N)=O)NC(=O)[C@@H](NC(=O)[C@@H](CCCCN=[N+]=[N-])NC(=O)[C@H](CC(=O)O)NC(=O)[C@H](CCCNC(=N)N)NC(C)=O)[C@@H](C)CC)C(=O)N[C@@H](Cc1cnc[nH]1)C(=O)N[C@@H](CC(C)C)C(=O)N[C@@H](CCCNC(=N)N)C(=O)N[C@@H](CCC(N)=O)C(=O)N[C@@H](Cc1ccc(O)cc1)C(=O)N[C@@H](CCC(=O)O)C(=O)N[C@@H](CC(C)C)C(=O)N[C@@H](CC(C)C)C(=O)O` [Ac-R-D-(D-K(N3))-I-Q-R-Pra-H-L-R-Q-Y-E-L-L-OH] returned a ring closure, isolated yield in data set [1] (21-membered ring, 0.25 h) of 56%.

`C#CCOC[C@H](NC(=O)[C@H](CCCNC(=N)N)NC(=O)[C@H](CCC(N)=O)NC(=O)[C@@H](NC(=O)[C@@H](CCCCN=[N+]=[N-])NC(=O)[C@H](CC(=O)O)NC(=O)[C@H](CCCNC(=N)N)NC(C)=O)[C@@H](C)CC)C(=O)N[C@@H](Cc1cnc[nH]1)C(=O)N[C@@H](CC(C)C)C(=O)N[C@@H](CCCNC(=N)N)C(=O)N[C@@H](CCC(N)=O)C(=O)N[C@@H](Cc1ccc(O)cc1)C(=O)N[C@@H](CCC(=O)O)C(=O)N[C@@H](CC(C)C)C(=O)N[C@@H](CC(C)C)C(=O)O` [Ac-R-D-(D-K(N3))-I-Q-R-Ser(O-propargyl)-H-L-R-Q-Y-E-L-L-OH]: the ring closure, isolated yield in data set [1] (23-membered ring) was determined as 40%.

`C#CC[C@H](NC(=O)[C@H](CCCC)NC(=O)[C@H](CCCNC(=N)N)NC(=O)[C@H](CCC(N)=O)NC(=O)[C@@H](CCCCN=[N+]=[N-])NC(=O)[C@@H](NC(=O)[C@H](CC(=O)O)NC(=O)[C@H](CCCNC(=N)N)NC(C)=O)[C@@H](C)CC)C(=O)N[C@@H](CC(C)C)C(=O)N[C@@H](CCCNC(=N)N)C(=O)N[C@@H](CCC(N)=O)C(=O)N[C@@H](Cc1ccc(O)cc1)C(=O)N[C@@H](CCC(=O)O)C(=O)N[C@@H](CC(C)C)C(=O)N[C@@H](CC(C)C)C(=O)O` [Ac-R-D-I-(D-K(N3))-Q-R-Nle-Pra-L-R-Q-Y-E-L-L-OH]: the ring closure, overall yield in data set [2] (21-membered ring) was found to be 11%.

As to `C#CCOC[C@H](NC(=O)[C@H](CCCC)NC(=O)[C@H](CCCNC(=N)N)NC(=O)[C@H](CCC(N)=O)NC(=O)[C@@H](CCCCN=[N+]=[N-])NC(=O)[C@@H](NC(=O)[C@H](CC(=O)O)NC(=O)[C@H](CCCNC(=N)N)NC(C)=O)[C@@H](C)CC)C(=O)N[C@@H](CC(C)C)C(=O)N[C@@H](CCCNC(=N)N)C(=O)N[C@@H](CCC(N)=O)C(=O)N[C@@H](Cc1ccc(O)cc1)C(=O)N[C@@H](CCC(=O)O)C(=O)N[C@@H](CC(C)C)C(=O)N[C@@H](CC(C)C)C(=O)O` [Ac-R-D-I-(D-K(N3))-Q-R-Nle-Ser(O-propargyl)-L-R-Q-Y-E-L-L-OH], in data set [2] (23-membered ring), the ring closure, overall yield stood at 13%.

Take `C#CC[C@H](NC(=O)[C@H](CCCNC(=N)N)NC(=O)[C@H](CC(C)C)NC(=O)[C@H](Cc1cnc[nH]1)NC(=O)[C@@H](CCCCN=[N+]=[N-])NC(=O)[C@H](CCCNC(=N)N)NC(=O)[C@H](CCC(N)=O)NC(=O)[C@@H](NC(=O)[C@@H](NC(=O)[C@H](CC(=O)O)NC(=O)[C@H](CCCNC(=N)N)NC(C)=O)[C@@H](C)CC)[C@@H](C)CC)C(=O)N[C@@H](Cc1ccc(O)cc1)C(=O)N[C@@H](CCC(=O)O)C(=O)N[C@@H](CC(C)C)C(=O)N[C@@H](CC(C)C)C(=O)O` [Ac-R-D-I-I-Q-R-(D-K(N3))-H-L-R-Pra-Y-E-L-L-OH]: the ring closure, overall yield in data set [2] (21-membered ring, 1.0 h) turned out to be 26%.

Regarding `C#CCOC[C@H](NC(=O)[C@H](CCCNC(=N)N)NC(=O)[C@H](CC(C)C)NC(=O)[C@H](Cc1cnc[nH]1)NC(=O)[C@@H](CCCCN=[N+]=[N-])NC(=O)[C@H](CCCNC(=N)N)NC(=O)[C@H](CCC(N)=O)NC(=O)[C@@H](NC(=O)[C@@H](NC(=O)[C@H](CC(=O)O)NC(=O)[C@H](CCCNC(=N)N)NC(C)=O)[C@@H](C)CC)[C@@H](C)CC)C(=O)N[C@@H](Cc1ccc(O)cc1)C(=O)N[C@@H](CCC(=O)O)C(=O)N[C@@H](CC(C)C)C(=O)N[C@@H](CC(C)C)C(=O)O` [Ac-R-D-I-I-Q-R-(D-K(N3))-H-L-R-Ser(O-propargyl)-Y-E-L-L-OH], the ring closure, overall yield in data set [2] (23-membered ring, 3.0 h) is 11%.

Consider `C#CC[C@H](NC(=O)[C@H](CCCNC(=N)N)NC(=O)[C@H](CC(C)C)NC(=O)[C@H](Cc1cnc[nH]1)NC(=O)[C@H](CCCCN=[N+]=[N-])NC(=O)[C@H](CCCNC(=N)N)NC(=O)[C@H](CCC(N)=O)NC(=O)[C@@H](NC(=O)[C@@H](NC(=O)[C@H](CC(=O)O)NC(=O)[C@H](CCCNC(=N)N)NC(C)=O)[C@@H](C)CC)[C@@H](C)CC)C(=O)N[C@@H](Cc1ccc(O)cc1)C(=O)N[C@@H](CCC(=O)O)C(=O)N[C@@H](CC(C)C)C(=O)N[C@@H](CC(C)C)C(=O)O` [Ac-R-D-I-I-Q-R-K(N3)-H-L-R-Pra-Y-E-L-L-OH], for which the ring closure, overall yield in data set [2] (21-membered ring, 3.0 h) turned out to be 10%.

For `C#CCOC[C@H](NC(=O)[C@H](CCCNC(=N)N)NC(=O)[C@H](CC(C)C)NC(=O)[C@H](Cc1cnc[nH]1)NC(=O)[C@H](CCCCN=[N+]=[N-])NC(=O)[C@H](CCCNC(=N)N)NC(=O)[C@H](CCC(N)=O)NC(=O)[C@@H](NC(=O)[C@@H](NC(=O)[C@H](CC(=O)O)NC(=O)[C@H](CCCNC(=N)N)NC(C)=O)[C@@H](C)CC)[C@@H](C)CC)C(=O)N[C@@H](Cc1ccc(O)cc1)C(=O)N[C@@H](CCC(=O)O)C(=O)N[C@@H](CC(C)C)C(=O)N[C@@H](CC(C)C)C(=O)O` [Ac-R-D-I-I-Q-R-K(N3)-H-L-R-Ser(O-propargyl)-Y-E-L-L-OH], the ring closure, overall yield in data set [2] (23-membered ring, 2.0 h) is 14%.

In data set [2] (21-membered ring), `C#CC[C@H](NC(=O)[C@H](CCCC)NC(=O)[C@H](CCCNC(=N)N)NC(=O)[C@H](CCC(N)=O)NC(=O)[C@H](CCCCN=[N+]=[N-])NC(=O)[C@@H](NC(=O)[C@H](CC(=O)O)NC(=O)[C@H](CCCNC(=N)N)NC(C)=O)[C@@H](C)CC)C(=O)N[C@@H](CC(C)C)C(=O)N[C@@H](CCCNC(=N)N)C(=O)N[C@@H](CCC(N)=O)C(=O)N[C@@H](Cc1ccc(O)cc1)C(=O)N[C@@H](CCC(=O)O)C(=O)N[C@@H](CC(C)C)C(=O)N[C@@H](CC(C)C)C(=O)O` [Ac-R-D-I-K(N3)-Q-R-Nle-Pra-L-R-Q-Y-E-L-L-OH] displayed a ring closure, overall yield of 10%.

In turn, `C#CCOC[C@H](NC(=O)[C@H](CCCC)NC(=O)[C@H](CCCNC(=N)N)NC(=O)[C@H](CCC(N)=O)NC(=O)[C@H](CCCCN=[N+]=[N-])NC(=O)[C@@H](NC(=O)[C@H](CC(=O)O)NC(=O)[C@H](CCCNC(=N)N)NC(C)=O)[C@@H](C)CC)C(=O)N[C@@H](CC(C)C)C(=O)N[C@@H](CCCNC(=N)N)C(=O)N[C@@H](CCC(N)=O)C(=O)N[C@@H](Cc1ccc(O)cc1)C(=O)N[C@@H](CCC(=O)O)C(=O)N[C@@H](CC(C)C)C(=O)N[C@@H](CC(C)C)C(=O)O` [Ac-R-D-I-K(N3)-Q-R-Nle-Ser(O-propargyl)-L-R-Q-Y-E-L-L-OH] showed a ring closure, overall yield in data set [2] (23-membered ring, 1.0 h) of 15%.

`C#CC[C@H](NC(=O)[C@H](CCCNC(=N)N)NC(=O)[C@H](CCC(N)=O)NC(=O)[C@@H](NC(=O)[C@H](CCCCN=[N+]=[N-])NC(=O)[C@H](CC(=O)O)NC(=O)[C@H](CCCNC(=N)N)NC(C)=O)[C@@H](C)CC)C(=O)N[C@@H](Cc1cnc[nH]1)C(=O)N[C@@H](CC(C)C)C(=O)N[C@@H](CCCNC(=N)N)C(=O)N[C@@H](CCC(N)=O)C(=O)N[C@@H](Cc1ccc(O)cc1)C(=O)N[C@@H](CCC(=O)O)C(=O)N[C@@H](CC(C)C)C(=O)N[C@@H](CC(C)C)C(=O)O` [Ac-R-D-K(N3)-I-Q-R-Pra-H-L-R-Q-Y-E-L-L-OH] displayed a ring closure, isolated yield in data set [1] (21-membered ring, 0.25 h) of 36%.

As to `C#CCOC[C@H](NC(=O)[C@H](CCCNC(=N)N)NC(=O)[C@H](CCC(N)=O)NC(=O)[C@@H](NC(=O)[C@H](CCCCN=[N+]=[N-])NC(=O)[C@H](CC(=O)O)NC(=O)[C@H](CCCNC(=N)N)NC(C)=O)[C@@H](C)CC)C(=O)N[C@@H](Cc1cnc[nH]1)C(=O)N[C@@H](CC(C)C)C(=O)N[C@@H](CCCNC(=N)N)C(=O)N[C@@H](CCC(N)=O)C(=O)N[C@@H](Cc1ccc(O)cc1)C(=O)N[C@@H](CCC(=O)O)C(=O)N[C@@H](CC(C)C)C(=O)N[C@@H](CC(C)C)C(=O)O` [Ac-R-D-K(N3)-I-Q-R-Ser(O-propargyl)-H-L-R-Q-Y-E-L-L-OH], the ring closure, isolated yield in data set [1] (23-membered ring, 1.0 h) stood at 69%.

In general, IC50 refers to the concentration at which inhibition is half-maximal. For the compound `CC[C@H](C)[C@H](NC(=O)[C@H](CC(=O)O)NC(=O)[C@H](CCCNC(=N)N)NC(C)=O)C(=O)N[C@H](C(=O)N[C@@H](CCC(N)=O)C(=O)N[C@@H](CCCNC(=N)N)C(=O)N[C@H]1CCCCn2cc(nn2)C[C@@H](C(=O)N[C@@H](Cc2ccc(O)cc2)C(=O)N[C@@H](CCC(=O)O)C(=O)N[C@@H](CC(C)C)C(=O)N[C@@H](CC(C)C)C(=O)O)NC(=O)[C@H](CCCNC(=N)N)NC(=O)[C@H](CC(C)C)NC(=O)[C@H](Cc2c[nH]cn2)NC1=O)[C@@H](C)CC` [Peptide 10C], the “Maximum efficacy of ISO” value in data set [3] (ISO CRC in presence of 100 μM peptidomimetic, HEK293 membranes overexpressing β2AR, normalised to ISO with vehicle (100%), mean ± SEM, n = 3, * P < 0.05) is 61.0 ± 4.1* %. Besides, the “Basal level (basal cAMP level of the ISO concentration-response curve)” value in data set [3] (ISO CRC in presence of 100 μM peptidomimetic, HEK293 membranes overexpressing β2AR, normalised to basal (0%) and maximal efficacy (100%) of ISO with vehicle (DMSO), 15 min preincubation, 30 min RT, mean ± SEM, n = 3) is −11.0 ± 4.3%. Also, the “Hill slope of the ISO concentration-response curve” value in data set [3] (in presence of 100 μM peptidomimetic, mean ± SEM, n = 3) is 0.63 ± 0.06. Moreover, the IC50 in data set [3] (in presence of an ISO concentration corresponding to EC75, 10C up to 200 μM, read-out: IC50 for blocking ISO-induced cAMP formation (estimated)) is 55 µM.
